Calls of active or inactive are those of the source.

By IC50 is commonly meant the concentration that gives 50% inhibition. By AC50 is commonly meant the concentration giving half of the maximal activity seen.

Test [1] has as its target Melanocortin receptor 4 (Homo sapiens, UniProt P32245). Briefly: MC4R antagonist potency on cAMP, dose response, cell-based, TR-FRET, biased antagonists (AID 602298).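 Also: antagonist potency against agonist-stimulated cAMP production.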 The test is classed as functional.
Test [2] is described as follows: nonselective inhibitors of cellular cAMP signaling, dose response, counter-screen for MC4R biased antagonist project, cell-based, TR-FRET cAMP detection (AID 602305).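 Also: U2OS cells stimulated with forskolin near its EC80 as the cAMP inducer; potency is for inhibition of forskolin-stimulated cAMP signaling.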 It is filed as functional. (In general: The purpose of a counterscreen is to sort out artefacts and off-target activity.)
The target in test [3] is T1, Apoptotic protease-activating factor 1 (Homo sapiens, UniProt O14727).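 Also: caspase-3 cleavage of fluorogenic Rh110 DEVD substrate downstream of apoptosome activation.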
T1 sequence (O14727 whole entry): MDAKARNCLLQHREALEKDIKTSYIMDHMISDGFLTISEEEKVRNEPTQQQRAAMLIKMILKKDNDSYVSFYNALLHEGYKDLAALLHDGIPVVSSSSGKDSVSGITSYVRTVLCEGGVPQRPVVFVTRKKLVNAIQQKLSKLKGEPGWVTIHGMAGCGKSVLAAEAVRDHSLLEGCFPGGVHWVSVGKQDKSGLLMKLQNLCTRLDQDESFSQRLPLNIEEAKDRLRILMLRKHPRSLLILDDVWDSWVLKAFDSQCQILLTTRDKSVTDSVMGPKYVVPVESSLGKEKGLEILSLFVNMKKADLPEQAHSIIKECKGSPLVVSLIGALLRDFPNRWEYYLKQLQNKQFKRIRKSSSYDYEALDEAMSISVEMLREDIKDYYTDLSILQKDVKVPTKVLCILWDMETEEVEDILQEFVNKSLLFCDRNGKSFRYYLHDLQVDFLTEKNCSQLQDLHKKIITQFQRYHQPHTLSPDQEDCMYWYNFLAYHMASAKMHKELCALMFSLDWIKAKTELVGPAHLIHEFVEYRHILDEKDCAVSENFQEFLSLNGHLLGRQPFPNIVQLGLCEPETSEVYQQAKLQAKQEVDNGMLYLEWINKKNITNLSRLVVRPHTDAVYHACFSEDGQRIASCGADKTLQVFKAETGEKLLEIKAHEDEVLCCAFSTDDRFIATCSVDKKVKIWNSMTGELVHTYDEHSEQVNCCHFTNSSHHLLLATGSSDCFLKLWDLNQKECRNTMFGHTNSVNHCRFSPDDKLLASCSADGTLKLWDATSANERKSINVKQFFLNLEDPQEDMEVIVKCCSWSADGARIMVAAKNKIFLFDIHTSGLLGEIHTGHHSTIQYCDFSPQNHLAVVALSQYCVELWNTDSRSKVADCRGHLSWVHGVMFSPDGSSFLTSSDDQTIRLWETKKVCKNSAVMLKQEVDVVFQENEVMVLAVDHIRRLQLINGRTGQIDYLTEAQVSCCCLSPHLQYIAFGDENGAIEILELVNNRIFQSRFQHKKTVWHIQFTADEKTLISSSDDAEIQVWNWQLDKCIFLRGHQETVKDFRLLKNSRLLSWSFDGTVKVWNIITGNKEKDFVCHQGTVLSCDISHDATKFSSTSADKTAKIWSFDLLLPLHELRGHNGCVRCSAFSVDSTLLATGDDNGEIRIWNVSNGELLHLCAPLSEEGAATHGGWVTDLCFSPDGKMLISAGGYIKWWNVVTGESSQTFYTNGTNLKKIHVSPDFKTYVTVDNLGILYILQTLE
Briefly: SAR analysis of small molecule Activators of Apaf-1 in a Fluorescent assay. Conditions: read-out: EC50_Mean. The test is classed as functional.

Test [4] concerns the target T2, Bcl-2-related protein A1 (Mus musculus, UniProt Q07440).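 Also: confirmatory dose–response counterscreen on Bfl-1, used to check hits from a UBC13 polyubiquitin inhibitor campaign.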
T2 sequence (Q07440 whole entry): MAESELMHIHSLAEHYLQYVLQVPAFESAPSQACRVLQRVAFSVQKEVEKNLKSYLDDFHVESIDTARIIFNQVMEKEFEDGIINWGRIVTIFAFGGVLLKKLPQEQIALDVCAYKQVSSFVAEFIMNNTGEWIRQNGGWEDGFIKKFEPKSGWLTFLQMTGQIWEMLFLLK
It is filed as functional.

The target in test [5] is T3, Ubiquitin-conjugating enzyme E2 N (Homo sapiens, UniProt P61088).
T3 sequence (P61088 whole entry): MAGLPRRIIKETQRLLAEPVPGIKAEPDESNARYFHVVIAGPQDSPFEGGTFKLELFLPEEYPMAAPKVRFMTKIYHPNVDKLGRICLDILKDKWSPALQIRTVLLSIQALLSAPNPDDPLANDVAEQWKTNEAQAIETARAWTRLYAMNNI
The test is classed as functional.

For test [6], the target named is T4, CAAX prenyl protease 2 (Saccharomyces cerevisiae S288c, UniProt Q03530).
T4 sequence (Q03530 whole entry): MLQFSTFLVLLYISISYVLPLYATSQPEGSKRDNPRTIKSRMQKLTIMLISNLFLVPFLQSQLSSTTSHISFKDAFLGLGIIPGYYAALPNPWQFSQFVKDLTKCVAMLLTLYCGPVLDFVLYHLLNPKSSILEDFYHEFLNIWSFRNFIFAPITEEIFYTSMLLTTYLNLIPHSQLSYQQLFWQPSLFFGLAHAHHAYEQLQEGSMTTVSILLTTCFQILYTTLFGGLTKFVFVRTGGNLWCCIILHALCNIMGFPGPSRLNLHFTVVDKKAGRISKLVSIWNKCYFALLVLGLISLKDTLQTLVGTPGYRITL
The test is classed as biochemical.

The target of test [7] is T3, Ubiquitin-conjugating enzyme E2 N. The test is classed as functional. The source holds these as a separate data set.
The target of test [8] is T5, Hexokinase HKDC1 (Homo sapiens, UniProt Q2TB90).
T5 sequence (Q2TB90 whole entry): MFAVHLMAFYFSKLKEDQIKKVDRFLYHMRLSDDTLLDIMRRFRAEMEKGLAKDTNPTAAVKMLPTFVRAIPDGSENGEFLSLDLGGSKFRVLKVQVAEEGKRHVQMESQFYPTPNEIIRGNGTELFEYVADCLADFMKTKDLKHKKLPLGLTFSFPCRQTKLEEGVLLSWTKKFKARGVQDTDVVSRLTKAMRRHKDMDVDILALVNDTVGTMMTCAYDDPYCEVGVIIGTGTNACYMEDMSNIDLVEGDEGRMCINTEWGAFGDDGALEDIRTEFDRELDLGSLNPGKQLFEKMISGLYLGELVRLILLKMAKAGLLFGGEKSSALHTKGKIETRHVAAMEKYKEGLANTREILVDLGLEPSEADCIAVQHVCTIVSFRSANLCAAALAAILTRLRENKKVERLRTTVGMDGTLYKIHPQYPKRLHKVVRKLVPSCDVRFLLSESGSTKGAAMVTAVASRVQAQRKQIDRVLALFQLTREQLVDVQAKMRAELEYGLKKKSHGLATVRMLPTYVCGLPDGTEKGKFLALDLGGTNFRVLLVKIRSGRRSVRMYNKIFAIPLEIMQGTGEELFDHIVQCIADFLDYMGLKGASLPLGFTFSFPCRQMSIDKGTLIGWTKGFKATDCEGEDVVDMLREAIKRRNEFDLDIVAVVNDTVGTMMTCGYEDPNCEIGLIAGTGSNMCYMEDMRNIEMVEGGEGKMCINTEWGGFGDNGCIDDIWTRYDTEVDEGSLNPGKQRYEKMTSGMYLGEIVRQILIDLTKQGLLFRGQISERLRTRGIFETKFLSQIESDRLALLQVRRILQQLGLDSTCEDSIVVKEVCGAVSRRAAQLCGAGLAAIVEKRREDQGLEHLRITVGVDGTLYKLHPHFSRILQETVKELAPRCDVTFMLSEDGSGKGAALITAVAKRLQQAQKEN
Briefly: HKDC1 hexokinase inhibitors, dose response, biochemical, W721R variant (AID 504729). The test is classed as functional.

For test [9], the target named is ATP-dependent molecular chaperone HSP82 (Candida albicans (strain WO-1) (Yeast), UniProt C4YTQ8). The test is described as follows: loss of DOC-induced GRE-beta-galactosidase reporter signal, dose response, Hsp90 inhibitor project, S. cerevisiae, luminescence (AID 2400).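 Also: beta-galactosidase luminescence from glucocorticoid response element reporter as proxy for Hsp90 function; inhibitor potency where signal loss means Hsp90 inhibition.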 It is filed as functional, cell-based.
Test [10] concerns the target T6, Hepatocyte nuclear factor 4-alpha (Homo sapiens, UniProt P41235).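 Also: biochemical luminescence-based dose-response counterscreen measuring inhibition of HNF4 dimerization, run alongside a screen for blockers of ABHD5–perilipin-5 interaction; split luciferase complementation of HNF4 fusion proteins in cell lysate measuring dimerization.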
T6 sequence (P41235 whole entry): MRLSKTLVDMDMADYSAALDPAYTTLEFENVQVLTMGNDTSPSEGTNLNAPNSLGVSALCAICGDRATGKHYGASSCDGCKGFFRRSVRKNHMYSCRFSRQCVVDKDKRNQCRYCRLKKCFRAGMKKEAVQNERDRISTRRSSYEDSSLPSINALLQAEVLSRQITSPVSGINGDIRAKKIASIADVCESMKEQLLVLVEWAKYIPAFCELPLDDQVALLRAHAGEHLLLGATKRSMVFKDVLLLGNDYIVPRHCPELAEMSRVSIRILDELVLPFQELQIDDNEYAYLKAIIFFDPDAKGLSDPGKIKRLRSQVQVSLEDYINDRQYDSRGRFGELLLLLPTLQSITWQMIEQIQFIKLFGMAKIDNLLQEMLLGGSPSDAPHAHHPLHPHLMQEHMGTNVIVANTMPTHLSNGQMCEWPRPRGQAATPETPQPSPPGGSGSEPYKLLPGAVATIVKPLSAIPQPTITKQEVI
It is filed as functional, cell-based.

The target in test [11] is T7, DNA repair protein RAD52 homolog (Homo sapiens, UniProt P43351).
T7 sequence (P43351 whole entry): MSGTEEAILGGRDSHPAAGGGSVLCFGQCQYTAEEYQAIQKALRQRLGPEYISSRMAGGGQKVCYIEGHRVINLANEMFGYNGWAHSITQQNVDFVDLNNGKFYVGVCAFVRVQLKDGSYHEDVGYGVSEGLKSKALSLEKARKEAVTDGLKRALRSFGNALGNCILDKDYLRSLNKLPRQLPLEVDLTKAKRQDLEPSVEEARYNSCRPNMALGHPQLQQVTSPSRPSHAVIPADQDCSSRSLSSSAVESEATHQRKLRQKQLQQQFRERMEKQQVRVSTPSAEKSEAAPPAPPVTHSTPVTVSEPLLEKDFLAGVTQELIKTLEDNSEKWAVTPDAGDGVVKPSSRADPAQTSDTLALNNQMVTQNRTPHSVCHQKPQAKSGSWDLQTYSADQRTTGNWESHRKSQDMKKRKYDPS
It is filed as functional, biochemical.

The target of test [12] is Paired box protein Pax-8 (Homo sapiens, UniProt Q06710). Briefly: inhibitors of PAX8-driven TPO luciferase reporter, dose response, RMG-I cells, cherry-pick (AID 687027).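 Also: luciferase reporter driven by Pax8 target thyroperoxidase promoter measured by SteadyGlo luminescence.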 The test is classed as functional, cell-based. For orientation: Reporter assays use an easily measured gene product as a stand-in for the process of interest.
Test [13] addresses T8, Cytochrome P450 1A2 (Homo sapiens, UniProt P05177).
T8 sequence (P05177 whole entry): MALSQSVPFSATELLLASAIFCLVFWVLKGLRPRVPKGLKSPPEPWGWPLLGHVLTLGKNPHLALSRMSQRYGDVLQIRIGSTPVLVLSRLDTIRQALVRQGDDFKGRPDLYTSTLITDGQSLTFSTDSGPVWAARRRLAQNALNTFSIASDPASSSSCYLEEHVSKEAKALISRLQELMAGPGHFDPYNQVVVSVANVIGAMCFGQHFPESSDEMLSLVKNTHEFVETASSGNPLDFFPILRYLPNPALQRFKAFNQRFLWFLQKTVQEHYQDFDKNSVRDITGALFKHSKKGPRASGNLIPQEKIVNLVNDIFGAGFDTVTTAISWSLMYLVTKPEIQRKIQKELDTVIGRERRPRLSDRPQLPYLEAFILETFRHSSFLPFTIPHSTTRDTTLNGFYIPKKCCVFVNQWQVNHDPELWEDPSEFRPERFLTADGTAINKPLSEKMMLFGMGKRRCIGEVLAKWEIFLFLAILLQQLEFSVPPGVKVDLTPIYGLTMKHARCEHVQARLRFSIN

Test [14] has as its target Cytochrome P450 2C9 (Homo sapiens, UniProt P11712).

Sequence of Melanocortin receptor 4 (P32245 whole entry): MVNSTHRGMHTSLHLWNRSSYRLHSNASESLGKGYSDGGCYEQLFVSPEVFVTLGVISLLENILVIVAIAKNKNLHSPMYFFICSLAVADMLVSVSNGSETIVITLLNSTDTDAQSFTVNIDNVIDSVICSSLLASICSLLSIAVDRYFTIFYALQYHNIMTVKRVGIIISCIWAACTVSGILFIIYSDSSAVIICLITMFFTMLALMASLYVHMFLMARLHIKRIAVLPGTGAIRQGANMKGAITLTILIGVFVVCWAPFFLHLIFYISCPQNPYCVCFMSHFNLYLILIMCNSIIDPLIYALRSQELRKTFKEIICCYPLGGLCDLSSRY
Sequence of Paired box protein Pax-8 (Q06710 whole entry): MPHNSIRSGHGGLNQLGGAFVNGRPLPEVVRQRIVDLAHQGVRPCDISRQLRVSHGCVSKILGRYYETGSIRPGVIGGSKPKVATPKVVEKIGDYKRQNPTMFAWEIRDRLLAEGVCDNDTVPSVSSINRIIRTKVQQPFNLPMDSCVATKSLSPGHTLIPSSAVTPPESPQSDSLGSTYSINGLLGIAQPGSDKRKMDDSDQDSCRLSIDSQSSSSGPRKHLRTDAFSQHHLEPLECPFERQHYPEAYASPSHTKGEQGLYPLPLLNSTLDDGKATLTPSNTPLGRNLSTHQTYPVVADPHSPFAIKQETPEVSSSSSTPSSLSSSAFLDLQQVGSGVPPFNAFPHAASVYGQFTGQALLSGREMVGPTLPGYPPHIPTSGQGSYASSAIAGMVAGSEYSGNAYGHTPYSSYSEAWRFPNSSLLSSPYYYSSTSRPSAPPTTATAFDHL
Sequence of ATP-dependent molecular chaperone HSP82 (C4YTQ8 whole entry, the tested form may be a part): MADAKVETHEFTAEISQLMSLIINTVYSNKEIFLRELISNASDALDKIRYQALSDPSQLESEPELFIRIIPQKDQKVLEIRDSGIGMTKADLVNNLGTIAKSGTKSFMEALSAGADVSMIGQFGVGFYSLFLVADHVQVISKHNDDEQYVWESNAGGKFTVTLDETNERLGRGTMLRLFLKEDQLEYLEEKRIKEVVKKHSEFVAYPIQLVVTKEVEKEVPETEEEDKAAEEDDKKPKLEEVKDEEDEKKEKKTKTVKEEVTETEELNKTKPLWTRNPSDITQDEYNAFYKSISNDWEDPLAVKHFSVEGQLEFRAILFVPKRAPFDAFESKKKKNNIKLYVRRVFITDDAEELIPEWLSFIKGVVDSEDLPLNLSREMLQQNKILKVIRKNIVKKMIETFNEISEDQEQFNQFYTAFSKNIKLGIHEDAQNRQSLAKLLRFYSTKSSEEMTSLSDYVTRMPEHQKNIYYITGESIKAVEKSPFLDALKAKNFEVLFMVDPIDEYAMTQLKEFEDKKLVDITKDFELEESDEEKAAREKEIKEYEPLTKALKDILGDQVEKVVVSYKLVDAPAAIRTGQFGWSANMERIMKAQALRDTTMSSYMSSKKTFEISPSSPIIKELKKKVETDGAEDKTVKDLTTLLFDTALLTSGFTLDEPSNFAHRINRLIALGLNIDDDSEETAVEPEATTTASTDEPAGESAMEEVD
Sequence of Cytochrome P450 2C9 (P11712 whole entry): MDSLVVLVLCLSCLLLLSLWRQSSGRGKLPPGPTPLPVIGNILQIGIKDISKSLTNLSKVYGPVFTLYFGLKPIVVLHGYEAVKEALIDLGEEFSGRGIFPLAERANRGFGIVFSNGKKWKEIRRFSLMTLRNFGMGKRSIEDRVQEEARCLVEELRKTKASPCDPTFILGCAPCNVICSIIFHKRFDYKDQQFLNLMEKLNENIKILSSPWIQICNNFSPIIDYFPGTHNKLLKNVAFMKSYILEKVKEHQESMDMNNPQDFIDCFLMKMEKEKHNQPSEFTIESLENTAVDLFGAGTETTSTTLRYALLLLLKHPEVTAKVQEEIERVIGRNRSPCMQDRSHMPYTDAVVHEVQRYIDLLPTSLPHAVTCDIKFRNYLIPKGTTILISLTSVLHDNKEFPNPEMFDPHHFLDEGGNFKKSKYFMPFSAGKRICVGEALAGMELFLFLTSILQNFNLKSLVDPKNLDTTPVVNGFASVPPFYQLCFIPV

Take `CCc1cc2ccc(OC)cc2nc1SCC(=O)N1CCN(C(=O)c2ccco2)CC1`: the IC50 in [1] and in test [2] was > 64.6 µM (inactive) each time.

As to `Cc1cccc(C)c1N1C(=O)CC2(CC(c3ccc4c(c3)OCCO4)=NO2)C1=O` (stereo not given), the EC50 in [3] was > 100 µM (inactive).

On to `[H]/N=C(\N/C(=N/[H])NCCCCCCNC(=N)NC(=N)Nc1ccc(Cl)cc1)Nc1ccc(Cl)cc1` [CHLORHEXIDINE], for which the IC50 was > 20 µM (inactive) in [4]; 3.01 µM (active) in [5]; 2.2 µM (active) in [7]; 8.99 µM (active) in test [8]; 2 µM (active) in test [1]; 23.5 µM (inactive) in test [10]. Also, the AC50 is 5.69 µM (active) in test [6]; 1.7 µM (active) in [11]; 5.69 µM (active) in test [12]; 15.8 µM (inconclusive) in [13]; 15.8 µM (inconclusive) in test [14]. The EC50 in test [9] is > 150 µM (inactive).

(Values after ChEMBL document CHEMBL1201862, “PubChem BioAssay data set” (2004).)
